What is called Ki is a dissociation constant, usually derived from enzyme kinetics or from competition with a known ligand.

A value given as a limit tells only on which side of the number the result lay.

Assay [1] has as its target T1, Angiotensin-converting enzyme (Rattus norvegicus, UniProt P47820).
T1 sequence (P47820 whole entry): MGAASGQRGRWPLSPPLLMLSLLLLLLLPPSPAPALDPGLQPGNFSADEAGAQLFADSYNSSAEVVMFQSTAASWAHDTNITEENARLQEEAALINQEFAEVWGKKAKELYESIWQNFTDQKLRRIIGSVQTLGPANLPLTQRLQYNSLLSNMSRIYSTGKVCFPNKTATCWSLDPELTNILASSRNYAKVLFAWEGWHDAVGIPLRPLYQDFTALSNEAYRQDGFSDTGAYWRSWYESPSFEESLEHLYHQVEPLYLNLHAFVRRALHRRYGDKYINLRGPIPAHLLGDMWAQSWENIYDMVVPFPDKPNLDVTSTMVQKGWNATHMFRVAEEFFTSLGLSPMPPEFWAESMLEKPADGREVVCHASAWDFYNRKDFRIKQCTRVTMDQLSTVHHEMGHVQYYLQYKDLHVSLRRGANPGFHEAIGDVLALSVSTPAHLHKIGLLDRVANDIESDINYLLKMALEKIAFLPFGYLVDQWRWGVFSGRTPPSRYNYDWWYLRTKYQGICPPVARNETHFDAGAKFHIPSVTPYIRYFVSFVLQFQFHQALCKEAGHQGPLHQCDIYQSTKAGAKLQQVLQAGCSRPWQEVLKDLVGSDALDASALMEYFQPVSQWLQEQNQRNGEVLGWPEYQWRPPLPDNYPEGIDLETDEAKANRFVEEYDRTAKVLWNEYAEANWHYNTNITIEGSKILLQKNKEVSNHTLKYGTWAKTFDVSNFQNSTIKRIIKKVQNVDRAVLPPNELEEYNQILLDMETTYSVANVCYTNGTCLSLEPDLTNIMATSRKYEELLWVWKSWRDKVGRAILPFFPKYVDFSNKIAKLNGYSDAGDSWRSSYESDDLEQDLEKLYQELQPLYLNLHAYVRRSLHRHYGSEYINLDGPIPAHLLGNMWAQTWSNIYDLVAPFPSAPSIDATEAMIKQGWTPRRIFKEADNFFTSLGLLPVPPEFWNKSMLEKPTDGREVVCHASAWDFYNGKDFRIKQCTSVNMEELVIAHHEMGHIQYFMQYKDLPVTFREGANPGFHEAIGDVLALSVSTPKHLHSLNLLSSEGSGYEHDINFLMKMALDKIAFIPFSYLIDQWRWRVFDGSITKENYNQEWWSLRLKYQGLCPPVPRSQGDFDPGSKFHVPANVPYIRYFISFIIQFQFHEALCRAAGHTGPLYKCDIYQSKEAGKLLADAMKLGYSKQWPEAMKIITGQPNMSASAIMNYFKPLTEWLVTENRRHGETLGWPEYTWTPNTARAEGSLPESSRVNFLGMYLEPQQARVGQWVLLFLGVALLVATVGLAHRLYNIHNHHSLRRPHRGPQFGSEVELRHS
The experiment in a line: Binding affinity against Angiotensin I converting enzyme from rat testis.

The next assay has as its target T2, Neprilysin (Oryctolagus cuniculus, UniProt P08049).
T2 sequence (P08049 whole entry): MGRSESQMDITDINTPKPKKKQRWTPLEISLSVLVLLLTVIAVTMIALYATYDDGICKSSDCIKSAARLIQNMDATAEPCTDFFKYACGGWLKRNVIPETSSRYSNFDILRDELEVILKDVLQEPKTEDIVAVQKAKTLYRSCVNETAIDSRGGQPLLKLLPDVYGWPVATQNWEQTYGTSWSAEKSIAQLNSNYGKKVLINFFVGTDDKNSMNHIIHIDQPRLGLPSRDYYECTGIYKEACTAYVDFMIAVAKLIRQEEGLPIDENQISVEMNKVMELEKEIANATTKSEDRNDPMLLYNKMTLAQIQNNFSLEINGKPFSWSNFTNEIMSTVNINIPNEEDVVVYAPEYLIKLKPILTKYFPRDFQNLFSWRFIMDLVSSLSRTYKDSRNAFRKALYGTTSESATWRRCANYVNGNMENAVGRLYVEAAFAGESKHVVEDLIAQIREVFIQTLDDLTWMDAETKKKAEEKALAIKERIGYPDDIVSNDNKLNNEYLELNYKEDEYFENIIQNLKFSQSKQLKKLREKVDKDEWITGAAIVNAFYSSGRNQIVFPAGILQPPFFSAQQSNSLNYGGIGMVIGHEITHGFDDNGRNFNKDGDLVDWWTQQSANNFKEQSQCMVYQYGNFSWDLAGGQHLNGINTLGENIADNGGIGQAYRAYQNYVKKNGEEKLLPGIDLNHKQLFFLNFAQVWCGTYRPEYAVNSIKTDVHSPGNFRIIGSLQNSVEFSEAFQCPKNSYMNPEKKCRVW
Put plainly: Binding affinity against NEP from rabbit kidney(neutral endopeptidase).

For a further assay, the target named is Glutamyl aminopeptidase (Homo sapiens, UniProt Q07075). Put plainly: Binding affinity against recombinant Aminopeptidase A.
Another assay has as its target T3, Aminopeptidase N (Sus scrofa, UniProt P15145).
T3 sequence (P15145 whole entry): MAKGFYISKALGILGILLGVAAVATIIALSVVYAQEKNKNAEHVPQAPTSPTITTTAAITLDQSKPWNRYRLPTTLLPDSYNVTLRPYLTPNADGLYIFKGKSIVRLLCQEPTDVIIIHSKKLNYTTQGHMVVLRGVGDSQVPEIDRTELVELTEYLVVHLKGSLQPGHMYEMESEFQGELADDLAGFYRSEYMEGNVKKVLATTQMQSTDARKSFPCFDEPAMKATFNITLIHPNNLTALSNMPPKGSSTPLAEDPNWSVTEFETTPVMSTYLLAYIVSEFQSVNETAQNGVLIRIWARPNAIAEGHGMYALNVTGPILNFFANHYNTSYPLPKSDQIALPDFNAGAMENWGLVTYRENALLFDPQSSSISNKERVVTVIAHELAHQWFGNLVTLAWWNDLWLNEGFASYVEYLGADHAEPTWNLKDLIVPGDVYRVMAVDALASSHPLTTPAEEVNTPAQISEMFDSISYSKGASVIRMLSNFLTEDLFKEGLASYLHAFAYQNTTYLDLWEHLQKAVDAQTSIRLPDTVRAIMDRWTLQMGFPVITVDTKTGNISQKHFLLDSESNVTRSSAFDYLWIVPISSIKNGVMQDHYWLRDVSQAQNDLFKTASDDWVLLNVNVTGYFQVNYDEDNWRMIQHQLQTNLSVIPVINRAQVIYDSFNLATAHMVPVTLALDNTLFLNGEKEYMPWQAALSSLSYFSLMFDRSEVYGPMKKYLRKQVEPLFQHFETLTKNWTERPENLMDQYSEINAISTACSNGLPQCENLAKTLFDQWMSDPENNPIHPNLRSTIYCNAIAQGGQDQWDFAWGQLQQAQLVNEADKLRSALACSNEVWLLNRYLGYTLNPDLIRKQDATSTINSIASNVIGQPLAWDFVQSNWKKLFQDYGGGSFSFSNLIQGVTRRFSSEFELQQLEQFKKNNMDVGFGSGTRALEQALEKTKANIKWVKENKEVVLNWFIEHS

Glutamyl aminopeptidase, sequence (Q07075 whole entry): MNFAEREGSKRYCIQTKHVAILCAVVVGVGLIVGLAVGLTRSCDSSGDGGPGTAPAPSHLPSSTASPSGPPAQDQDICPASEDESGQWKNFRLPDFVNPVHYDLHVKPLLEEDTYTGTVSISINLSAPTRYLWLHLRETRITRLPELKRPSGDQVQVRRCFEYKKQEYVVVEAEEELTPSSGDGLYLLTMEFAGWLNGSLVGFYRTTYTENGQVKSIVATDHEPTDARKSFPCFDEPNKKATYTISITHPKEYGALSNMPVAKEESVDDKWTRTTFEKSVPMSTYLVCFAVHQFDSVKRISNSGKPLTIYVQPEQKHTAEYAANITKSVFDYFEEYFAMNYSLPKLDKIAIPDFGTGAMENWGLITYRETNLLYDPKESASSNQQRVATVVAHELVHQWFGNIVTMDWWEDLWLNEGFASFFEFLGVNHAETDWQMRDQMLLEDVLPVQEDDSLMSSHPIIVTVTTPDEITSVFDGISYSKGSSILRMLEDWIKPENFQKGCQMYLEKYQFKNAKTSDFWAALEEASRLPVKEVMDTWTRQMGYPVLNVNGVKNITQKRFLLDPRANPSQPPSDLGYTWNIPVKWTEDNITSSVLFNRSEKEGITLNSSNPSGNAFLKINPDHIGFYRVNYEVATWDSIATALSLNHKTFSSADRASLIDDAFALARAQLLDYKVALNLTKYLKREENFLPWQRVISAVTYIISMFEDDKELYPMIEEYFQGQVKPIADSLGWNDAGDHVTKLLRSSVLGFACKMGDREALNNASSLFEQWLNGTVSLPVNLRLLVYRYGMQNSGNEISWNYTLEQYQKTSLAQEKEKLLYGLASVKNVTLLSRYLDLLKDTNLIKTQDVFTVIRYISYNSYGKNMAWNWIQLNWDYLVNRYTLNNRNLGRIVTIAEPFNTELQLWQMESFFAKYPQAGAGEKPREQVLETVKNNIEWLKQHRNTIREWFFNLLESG
Description for Aminopeptidase N: Binding affinity against aminopeptidase N from pig kidney

Consider `N[C@H](CCS(=O)(=O)O)[C@@H](S)C(=O)N[C@@H](Cc1ccc(O)cc1)C(=O)N[C@@H](CC(=O)O)C(=O)O`, for which the Ki in assay [1] was 1800 nM; at Neprilysin, 34 nM; on Glutamyl aminopeptidase, 4.3 nM; on Aminopeptidase N, 31000 nM.

In the case of `CC[C@@H](C)[C@H](NC(=O)[C@H](S)[C@H](N)CCC(=O)O)C(=O)N[C@@H](CC(=O)O)C(=O)O`, the Ki is 1800 nM in assay [1], 4 nM on Neprilysin, 3.56 nM at Glutamyl aminopeptidase and more than 10000 nM on Aminopeptidase N.

`CC[C@@H](C)[C@H](NC(=O)[C@H](S)[C@H](N)CCP(=O)(O)O)C(=O)N[C@@H](CC(=O)O)C(=O)O`: the Ki is 2200 nM in assay [1], 5.4 nM at Neprilysin, 12 nM at Glutamyl aminopeptidase and more than 10000 nM at Aminopeptidase N.

`CC[C@@H](C)[C@H](NC(=O)[C@H](S)[C@H](N)CCS(=O)(=O)O)C(=O)N[C@@H](CC(=O)O)C(=O)O`: the inhibition constant Ki in assay [1] was 1200 nM; at Neprilysin it was 22 nM; on Glutamyl aminopeptidase it was 3.2 nM; at Aminopeptidase N it was more than 100000 nM.

The values above are taken from ChEMBL document CHEMBL1132539 (J Med Chem, 1999).
